In patent US6500610B1, “Methods for identifying compounds for inhibiting of neoplastic lesions, and pharmaceutical compositions containing such compounds” (Cell Pathways, INC, priority 1997, dated 2002):
Read-outs that look alike come from different tables or passages of the source.

Tests used:
β-catenin in SW480 cells = experiment: Western blot of β-catenin in SW480 cells; format: cell-based, human; conditions: SW480, 200, 400 or 600 μM, 48 hours
Protocol: SW480 cells treated with exisulind as described previously are harvested from the microfuge tubes by rinsing once with ice-cold PBS. The cells are lysed by modified RIPA buffer for 15 minutes with agitation. The cell lysate is spun down in a cold room. The supernatants are transferred to fresh microcentrifuge tubes immediately after spinning. BioRad DC Protein Assay (Temecula, Calif.) is performed to determine the protein concentrations in samples. The samples are normalized for protein concentration, as described above.
50 μg of each sample is loaded to 10% SDS gel. SDS-PAGE is performed, and the proteins then are transferred to a nitrocellulose membrane. The blotted nitrocellulose membrane are blocked in freshly prepared TBST containing 5% nonfat dry milk for one hour at room temperature with constant agitation.
SW480 cells were treated with exisulind or vehicle (0.1% DMSO) for 48 hours. 50 μg supernatant of each cell lysates were loaded to 10% SDS-gel and blotted to nitrocellulose membrane, and the membrane was probed with rabbit-anti-β-catenin and rabbit anti-PKG antibodies.
This observation was made by culturing SW480 cells with either 200, 400 or 600 μM exisulind or vehicle (0.1% DMSO). The cells are harvested 48 hours post treatment and processed for immunoblotting. Immuno-reactive protein can be detected by Western blot. […]

patients = experiment: Safety evaluation in exisulind clinical trials; format: in vivo
Protocol: In these exisulind trials and several others involving the drug in other indications, safety was evaluated by monitoring adverse events (AEs), clinical laboratory tests (hematology, serum chemistry, and urinalysis), vital signs (blood pressure, pulse rate, respiratory rate, temperature, and weight), physical examination, and upper endoscopy.

[1] = test system: premalignant lesions in mouse mammary gland organ culture; experiment: Mammary gland organ culture model; format: cell-based
Text: Test compounds identified by the above methods can be tested for antineoplastic activity by their ability to inhibit the incidence of pre-neoplastic lesions in a mammary gland organ culture system. This mouse mammary gland organ culture technique has been successfully used by other investigators to study the effects of known antineoplastic agents such as certain NSAIDs, retinoids, tamoxifen, selenium, and certain natural products, and is useful for validation of the screening method of the present invention.
For example, female BALB/c mice can be treated with a combination of estradiol and progesterone daily, in order to prime the glands to be responsive to hormones in vitro. The animals are sacrificed, and thoracic mammary glands are excised aseptically and incubated for ten days in growth media supplemented with insulin, prolactin, hydrocortisone, and aldosterone. DMBA (7,12 dimethylbenz(a)anthracene) is added to medium to induce the formation of premalignant lesions. Fully developed glands are then deprived of prolactin, hydrocortisone, and aldosterone, resulting in the regression of the glands but not the pre-malignant lesions.
The test compound is dissolved in DMSO and added to the culture media for the duration of the culture period. At the end of the culture period, the glands are fixed in 10% formalin, stained with alum carmine, and mounted on glass slides. The incidence of forming mammary lesions is the ratio of the glands with mammary lesions to […]. The incidence of mammary lesions in test compound treated glands is compared with that of the untreated glands.
The extent of the area occupied by the mammary lesions can be quantitated by projecting an image of the gland onto a digitation pad. The area covered by the gland is traced on the pad and considered as 100% of the area. The space covered by each of the non-regressed structures is also outlined on the digitization pad and quantitated by the computer.
Mammary gland organ culture experiment were performed as previously described (Mehta and Moon, Cancer Research, 46:5832-5835, 1986). […]

[2] = target: T1, cGMP binding sites of the GST-cGB-PDE5 Protein (Homo sapiens, UniProt O76074); experiment: cGMP binding assay with GST-cGB-PDE5 fusion protein; conditions: 3H-cGMP 2 μM
T1 construct: made in house; host or cells: E. coli BL21 (DE3)

[3] = test system: cGMP PDE from human colon HT-29 cultured tumor cells; experiment: cGMP PDE inhibition assay; format: biochemical
[4] = target: T2, cyclooxygenase (Type 1), COX-I (Ovis aries, UniProt P05979); experiment: COX inhibition assay, purified cyclooxygenase
T2 sequence (P05979 25-600): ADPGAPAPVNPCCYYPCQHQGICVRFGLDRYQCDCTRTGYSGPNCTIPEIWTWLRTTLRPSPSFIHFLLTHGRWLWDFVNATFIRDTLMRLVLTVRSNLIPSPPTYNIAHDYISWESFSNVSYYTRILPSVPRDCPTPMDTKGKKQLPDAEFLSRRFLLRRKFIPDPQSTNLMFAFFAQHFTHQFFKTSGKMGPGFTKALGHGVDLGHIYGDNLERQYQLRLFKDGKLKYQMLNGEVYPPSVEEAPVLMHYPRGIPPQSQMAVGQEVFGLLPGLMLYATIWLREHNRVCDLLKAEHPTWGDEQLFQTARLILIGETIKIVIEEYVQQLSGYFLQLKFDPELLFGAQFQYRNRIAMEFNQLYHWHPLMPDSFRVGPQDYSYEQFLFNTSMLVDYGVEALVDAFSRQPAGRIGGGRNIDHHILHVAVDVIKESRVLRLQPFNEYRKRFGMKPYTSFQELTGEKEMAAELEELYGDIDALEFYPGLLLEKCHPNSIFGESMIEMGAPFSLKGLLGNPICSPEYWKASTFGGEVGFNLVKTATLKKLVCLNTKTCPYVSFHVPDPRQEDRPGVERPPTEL

[5] = test system: protein kinase G (PKG) activity in HCT116 colon cancer cells; experiment: PKG activity assay of lysates of drug-treated HCT116 cells; format: cell-based
Text: To test the effect of cGMP-specific PDE inhibition on neoplasia containing the β-catenin mutation, HCT116 colon cancer cells were employed. HCT116 is known to contain the β-catenin mutation, but is known not to contain the APC mutation.
The same procedure is used to grow the HCT116 cells as is used in the SW480 procedure described above. In this experiment, only exisulind and controls were used.

[6] = test system: SW-480 colon adenocarcinoma cells; experiment: Apoptosis fold induction / DNA fragmentation protocol
HT-29 cells = experiment: Growth inhibition, SRB assay, HT-29; format: cell-based, human
[7] = test system: SW-480 colon adenocarcinoma cells
[8] = target: T3, novel cGMP-specific PDE (Peak B) from SW480 cells (Homo sapiens, UniProt O00408); experiment: cGMP hydrolysis inhibition, novel PDE peak B (Section IA) from SW480; format: biochemical; conditions: peak B from SW480, FPLC, 0.25 μM cGMP
T3 construct: IC50 Peak B (μM)

[9] = test system: novel Peak B from LnCAP prostate cancer cell line; experiment: cGMP PDE activity of peak B from LnCAP; format: biochemical; conditions: 0.25 μM cGMP
Protocol: (§1) The novel Peak B was also isolated from two other neoplastic cell lines, a breast cancer cell line, HTB-26 and a prostate cancer cell line, LnCAP by a procedure similar to the one above used to isolate it from SW480. The protocol was modified in several respects. To provide even greater reproducibility to allow comparison of different cell lines, a Pharmacia AKTA FPLC was used to control sample loading and elution on an 18 mL DEAE TrisAcryl M column. SW840 was run by this same procedure multiple times to provide a reference of peak B. 200-400 million cells of SW480 were used for the profiles. 70 million cells of LnCAP were used for a profile (see FIGS. 22 and 23), and in a separate experiment 32 million cells of HTB-26 were used for a profile (see FIGS. 20 and 21). After re-suspending cells in homogenization buffer, samples were manually homogenized. FPLC buffer A was 8 mM TRIS-acetate, 5 mM Mg acetate, 0.1 mM EDTA, pH 7.5 and buffer B was 8 mM TRIS-acetate, 5 mM Mg acetate, 0.1 mM EDTA, 1 M Na acetate, pH 7.5. Supernatants were loaded onto the column at 1 mL per minute, followed by a wash with 60 mL buffer A at 1 mL per minute. A gradient was run from 0-15% buffer B in 60 mL, 15-50% buffer B in 60 mL, and 50-100% buffer B in 16 mL. During the gradient 1.5 mL fractions were collected.

[10] = test system: novel Peak B from HTB-26 breast cancer cell line; experiment: cGMP PDE activity of peak B from HTB-26; format: biochemical; conditions: peak B from HTB-26, 0.25 μM cGMP
Protocol: as §1

Structure (SMILES): CC1=C(CC(=O)O)c2cc(F)ccc2/C1=C\c1ccc(S(C)(=O)=O)cc1 [Exisulind, 5-fluoro-2-methyl-1-(p-methylsulfonylbenzylidene)-3-indenylacetic acid]
- reduction of expression of β-catenin (β-catenin in SW480 cells): 50%
- dose-limiting adverse events (patients; human, in vivo): elevations in liver function tests (LFTs)
- safety issues in clinical trials (patients; human, in vivo): No outstanding safety issues have been demonstrated
- apoptosis rates in paired biopsies (patients; polyp and normal colonic tissues in APC patients): increased apoptosis rates in polyp, but not normal colonic tissues
- inhibition of formation of premalignant lesions [1]: effectively inhibit the formation of premalignant lesions
- competition with cGMP in binding of GST-cGB-PDE5 [2]: None of the PDE5 inhibitors showed any competition with cGMP
- cGMP PDE % Inhibition at 10 μM [3]: 39%
- IC50 [4]: > 10 mM
- PKG activity relative to control [5]: PKG activation occurred

Structure (SMILES): CCCCCC[C@@H]([C@@H](C)O)n1cnc2c(N)ncnc21 (racemic) [EHNA]
- Fold induction at 100 μM (apoptosis) [6]: <2.0 fold

Structure (SMILES): CCN(CC)CCSC12CC(=O)OC1(C)/C(=C/c1ccc(S(C)(=O)=O)cc1)c1ccc(F)cc12 (racemic) [A, rac-threo-(E)-1-(N,N′-diethylaminoethanethio)-1-(butan-1′,4′-olido)-[3′,4′:1,2]-6-fluoro-2-methyl-3-(p-methylsulfonylbenzylidene)-indan]
- Growth % Inhibition at 100 μM (HT-29 cells): 68%
- Fold induction at 100 μM (apoptosis) [7]: <2.0 fold
- cGMP PDE % Inhibition at 10 μM [3]: <25%
- COX % Inhibition at 100 μM ([4]; 100 μM): <25%

Structure (SMILES): O=C([O-])C1CCN(c2nc(NCc3ccc4c(c3)OCO4)c3cc(Cl)ccc3n2)CC1.[Na+] [Compound E4021]
- sensitivity of peak B cGMP PDE activity [8]: resistant to 100 nM E4021
- Growth % Inhibition at 100 μM (HT-29 cells): <50%
- sensitivity of peak B cGMP PDE activity [9]: resistant to 100 nM E4021
- competition with cGMP in binding of GST-cGB-PDE5 [2]: None of the PDE5 inhibitors showed any competition with cGMP
- sensitivity of peak B cGMP PDE activity [10]: resistant to 100 nM E4021
